According to patent US8716289B2, “Carbamate derivatives of alkyl-heterocycles, preparation thereof and therapeutic use thereof” (Sanofi, priority 2008, dated 2014):

Tests used:
[1] = molecular target: T1, enzyme FAAH (Fatty Acid Amide Hydrolase) (Mus musculus, UniProt O08914); experiment: FAAH radioenzymatic test, hydrolysis of anandamide [ethanolamine 1-3H] (Protocol 1); format: biochemical; conditions: mouse brain membrane homogenate, anandamide 10 μM, preincubation 20 min at 25° C.
T1 construct: The membrane homogenates are prepared extemporaneously by homogenizing the tissues; from tissue; host or cells: mouse brain (minus the cerebellum), membrane homogenate
T1 sequence (O08914 1-579): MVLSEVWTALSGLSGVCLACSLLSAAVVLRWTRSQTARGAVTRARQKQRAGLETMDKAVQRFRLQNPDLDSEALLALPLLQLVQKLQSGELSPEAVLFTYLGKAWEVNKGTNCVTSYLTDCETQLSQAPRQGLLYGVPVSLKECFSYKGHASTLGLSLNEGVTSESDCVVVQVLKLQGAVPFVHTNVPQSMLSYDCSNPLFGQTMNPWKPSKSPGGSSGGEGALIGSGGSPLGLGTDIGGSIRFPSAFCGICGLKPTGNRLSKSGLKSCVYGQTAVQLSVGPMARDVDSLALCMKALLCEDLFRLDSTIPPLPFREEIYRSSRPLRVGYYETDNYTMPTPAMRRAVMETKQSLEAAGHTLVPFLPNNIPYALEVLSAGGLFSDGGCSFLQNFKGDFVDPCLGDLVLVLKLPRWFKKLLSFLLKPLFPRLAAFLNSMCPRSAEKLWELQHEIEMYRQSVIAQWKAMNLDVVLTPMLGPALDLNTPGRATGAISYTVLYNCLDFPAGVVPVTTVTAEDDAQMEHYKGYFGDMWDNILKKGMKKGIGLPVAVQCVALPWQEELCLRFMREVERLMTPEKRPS
Description: Thus, mouse brains (minus the cerebellum) are removed and stored at −80° C. The membrane homogenates are prepared extemporaneously by homogenizing the tissues using a Precellys® machine in reaction buffer (10 mM Tris-HCl, pH=8, 150 mM NaCl and 1 mM ethylenediaminetetraacetic acid (EDTA)). The enzymatic reaction is performed in 96-well Multiscreen filtration plates in a final volume of 70 μL. Reaction buffer supplemented with fatty acid-free bovine serum albumin (BSA, 1 mg/ml) is used for the enzymatic reaction and the dilution of the compounds and of the anandamide [ethanolamine 1-^3H]. The reaction buffer containing BSA (43 μL/well), the diluted test compounds at different concentrations (7 μL/well containing 1% DMSO) and the membrane preparation (10 μL/well, i.e. […] of tissue per test) are successively added to the wells. After preincubation for 20 minutes of the compounds with the enzyme at 25° C., the reaction is started by adding anandamide [ethanolamine 1-^3H]. (Specific activity of 15-20 Ci/mmol) diluted with cold anandamide (10 μL/well, final concentration of 10 μM, 0.01 ρCi per test). After incubation for 20 minutes at 25° C., the enzymatic reaction is stopped by adding a […] solution of active charcoal prepared in 1.5M NaCl buffer and 0.5 M HCl (50 μL/well). The mixture is stirred for 10 minutes and the aqueous phase containing the ethanolamine [1-^3H] is then recovered by filtration under vacuum and counted by liquid scintillation.

[2] = system: male OF1 mice; experiment: test of analgesia: PBQ-induced abdominal stretching; format: in vivo, mouse; conditions: 30 mg/kg p.o. at 120 minutes
Description: The in vivo activity of the compounds of the invention was evaluated in a test of analgesia.
Thus, the intraperitoneal (i.p.) administration of PBQ (phenylbenzoquinone, 2 mg/kg in 0.9% sodium chloride solution containing 5% ethanol) to male OF1 mice weighing 25 to 30 g causes abdominal stretching, on average 30 torsions or contractions within a period of 5 to 15 minutes after injection. The test compounds are administered orally (p.o.) or intraperitoneally (i.p.) suspended in Tween 80 at 0.5%, 60 minutes or 120 minutes before the administration of PBQ. Under these conditions, the compounds of the invention that are the most powerful reduce by 30% to 80% the number of stretches induced with PBQ, over a dose range of between 1 and 30 mg/kg.

SMILES | IC50 [1] [nM] | melting point [°C] | reduction of the number of stretches induced with PBQ [2] [%]
NC(=O)c1cc(COC(=O)NCCC2CCN(c3ccc4cc(Cl)ccc4n3)CC2)on1 [Compound 1, 3-carbamoylisoxazol-5-ylmethyl 2-[1-(6-chloroquinolin-2-yl)piperidin-4-yl]ethylcarbamate] | 1 | 220 to 222 | 55
Cn1ncnc1COC(=O)NCCC1CCN(c2ccc3cc(Cl)ccc3n2)CC1 [Compound 2, 2-methyl-2H-[1,2,4]triazol-3-ylmethyl 2-[1-(6-chloroquinolin-2-yl)piperidin-4-yl]ethylcarbamate] | 40 | 122 to 124 | –
CCc1noc(COC(=O)NCCC2CCN(c3ccc(-c4ccc(F)cc4)cn3)CC2)n1 [Compound 5, 3-ethyl[1,2,4]oxadiazol-5-ylmethyl 2-[5′-(4-fluorophenyl)-3,4,5,6-tetrahydro-2H-[1,2′]bipyridinyl-4-yl]-ethylcarbamate] | 2 | 110 to 112 | –
O=C(NCCC1CCN(c2ccc(-c3ccc(F)cc3)cn2)CC1)OCc1csnn1 [Compound 9, [1,2,3]thiadiazol-4-ylmethyl 2-[5′-(4-fluorophenyl)-3,4,5,6-tetrahydro-2H-[1,2′]bipyridinyl-4-yl]ethylcarbamate] | 2 | 139 to 141 | –
O=C(NCCC1CCN(c2ccc3cc(Cl)ccc3n2)CC1)OCc1nnc(-c2ccc(F)cc2)o1 [Compound 12, 5-(4-fluorophenyl)[1,3,4]oxadiazol-2-ylmethyl 2-[1-(6-chloroquinolin-2-yl)piperidin-4-yl]ethylcarbamate] | 47 | 169 to 170 | –
NC(=O)c1cc(COC(=O)NCCC2CCN(c3ccc(-c4ccc(F)cc4)cn3)CC2)on1 [Compound 19, 3-carbamoylisoxazol-5-ylmethyl 2-[5′-(4-fluorophenyl)-3,4,5,6-tetrahydro-2H-[1,2′]bipyridinyl-4-yl]ethylcarbamate] | 1 | 202 to 204 | 30
NC(=O)c1cc(COC(=O)NCCC2CCN(c3nccc(C(F)(F)F)n3)CC2)on1 [Compound 38] | 2 | – | –
NC(=O)c1cc(COC(=O)NCCC2CCN(c3ccc(-c4ccc(F)cc4)nn3)CC2)on1 [Compound 41] | 0.6 | – | –
CN1CCN(C(=O)c2cc(COC(=O)NCCC3CCN(c4ccc(-c5ccc(F)cc5)cn4)CC3)on2)CC1 [Compound 46] | 16 | – | –
Cn1ccc(COC(=O)NCCCC2CCN(c3nccc(C(F)(F)F)n3)CC2)n1 [Compound 52] | 28 | – | –
CCOC(=O)c1cc(COC(=O)NCC2(F)CCN(c3ccc4cc(Cl)ccc4n3)CC2)on1 [Compound 56, ethyl 5-[1-(6-chloroquinolin-2-yl)-4-fluoropiperidin-4-ylmethylcarbamoyloxymethyl]isoxazole-3-carboxylate] | – | 132 to 134 | –
CNC(=O)c1cc(COC(=O)NCC2(F)CCN(c3nccc(C(F)(F)F)n3)CC2)on1 [Compound 57, 3-methylcarbamoylisoxazol-5-ylmethyl [4-fluoro-1-(4-trifluoromethylpyrimidin-2-yl)piperidin-4-yl]methylcarbamate] | – | 187 to 189 | –
CC(C)c1nc(COC(=O)NCC2CCN(c3nnc(Cl)c4ccccc34)CC2)no1 [Compound 59, 5-isopropyl[1,2,4]oxadiazol-3-ylmethyl [1-(4-chlorophthalazin-1-yl)piperidin-4-yl]methylcarbamate] | – | 139 to 141 | –
CCC1(CCNC(=O)OCc2cc(C(=O)NC)no2)CCN(c2cnc3cc(Cl)ccc3n2)CC1 [Compound 64] | 3 | – | –
CNC(=O)c1cc(COC(=O)NCCC2(CC(C)C)CCN(c3ccc([N+](=O)[O-])cc3C(F)(F)F)CC2)on1 [Compound 66, 3-methylcarbamoylisoxazol-5-ylmethyl {2-[4-isobutyl-1-(4-nitro-2-trifluoromethylphenyl)piperidin-4-yl]ethyl}carbamate] | – | 145 to 147 | –
CC(C)c1nc(COC(=O)NCC2CCN(c3nccc4ccccc34)CC2)no1 [Compound 67, 5-isopropyl[1,2,4]oxadiazol-3-ylmethyl (1-isoquinolin-1-ylpiperidin-4-ylmethyl)carbamate] | – | 95 to 97 | –
NC(=O)c1cc(COC(=O)NCCC2CCN(c3cnc(-c4ccc(F)cc4)cn3)CC2)on1 [Compound 68, 3-carbamoylisoxazol-5-ylmethyl (2-{1-[5-(4-fluorophenyl)-pyrazin-2-yl]piperidin-4-yl}ethyl)carbamate] | – | 187 to 189 | –
CNC(=O)c1cc(COC(=O)NCCC2CCN(c3cnc(-c4ccc(F)cc4)cn3)CC2)on1 [Compound 69, 3-methylcarbamoylisoxazol-5-ylmethyl (2-{1-[5-(4-fluorophenyl)pyrazin-2-yl]piperidin-4-yl}ethyl)carbamate] | – | 181.5 to 183.5 | –
CNC(=O)c1cc(COC(=O)NC2CCN(c3nccc(C(F)(F)F)n3)CC2)on1 [Compound 70, 3-methylcarbamoylisoxazol-5-ylmethyl [1-(4-trifluoromethylpyrimidin-2-yl)piperidin-4-yl]carbamate] | – | 197 to 199 | –
CCOC(=O)c1cc(COC(=O)NCCC2CCN(c3ccc4cc(Cl)ccc4n3)CC2)on1 [Compound 71, ethyl 5-{2-[1-(6-chloroquinolin-2-yl)piperidin-4-yl]-ethylcarbamoyloxymethyl}isoxazole-3-carboxylate] | – | 117 to 119 | –
CNC(=O)c1cc(COC(=O)NCCC2(C)CCN(c3nccc(C(F)(F)F)n3)CC2)on1 [Compound 72, 3-methylcarbamoylisoxazol-5-ylmethyl {2-[4-methyl-1-(4-trifluoromethylpyrimidin-2-yl)piperidin-4-yl]ethyl}carbamate] | – | 160 to 162 | –
CNC(=O)c1cc(COC(=O)NC2CCN(c3nnc(Cl)c4ccccc34)CC2)on1 [Compound 75, 3-methylcarbamoylisoxazol-5-ylmethyl [1-(4-chlorophthalazin-1-yl)piperidin-4-yl]carbamate] | – | 208 to 210 | –
CNC(=O)c1cc(COC(=O)NC2CCN(c3ccc([N+](=O)[O-])cc3C(F)(F)F)CC2)on1 [Compound 76, 3-methylcarbamoylisoxazol-5-ylmethyl [1-(4-nitro-2-trifluoromethylphenyl)piperidin-4-yl]carbamate] | – | 156 to 158 | –
CNC(=O)c1cc(COC(=O)NC2CCN(c3cnc4cc(Cl)ccc4n3)CC2)on1 [Compound 77, 3-methylcarbamoylisoxazol-5-ylmethyl [1-(6-chloroquinoxalin-2-yl)piperidin-4-yl]carbamate] | – | 232 to 234 | –
CNC(=O)c1cc(COC(=O)NCCC2(C)CCN(c3cnc4cc(Cl)ccc4n3)CC2)on1 [Compound 78, 3-methylcarbamoylisoxazol-5-ylmethyl {2-[1-(6-chloroquinoxalin-2-yl)-4-methylpiperidin-4-yl]ethyl}carbamate] | – | 167 to 169 | –
NC(=O)c1cc(COC(=O)NCCC2CN(c3nccc(C(F)(F)F)n3)C2)on1 [Compound 82, 3-carbamoylisoxazol-5-ylmethyl {2-[1-(4-trifluoromethylpyrimidin-2-yl)azetidin-3-yl]ethyl}carbamate] | – | 163 to 165 | –
CNC(=O)c1cc(COC(=O)NCCC2CN(c3nccc(C(F)(F)F)n3)C2)on1 [Compound 83, 3-methylcarbamoylisoxazol-5-ylmethyl {2-[1-(4-trifluoromethylpyrimidin-2-yl)azetidin-3-yl]ethyl}carbamate] | – | 155 to 157 | –
